Assays:
Type in all cases: in vivo, Wistar rats
gut microbiota = experiment: Gut microbiota structure in rat feces by 454 pyrosequencing and multivariate statistics (PCoA, MANOVA, RDA, Shannon-Wiener index)
Description: (§1) These examples use Wistar rats (8 weeks old, male) as testing subjects and berberine as a representative compound. 40 Wistar rats were acclimatized for two weeks and were subsequently randomly divided into four groups: normal diet group (NCD), normal diet plus berberine treatment (NCD+BBR), high fat diet (HFD), and high fat diet plus berberine treatment (HFD+BBR). Each group continued for another 18 weeks. During these 18 weeks, the NCD+BBR group received intragastric administration of berberine at stated levels. Feces samples from each animal were collected at various time points. 454 pyrosequencing was performed to analyze gut microbiota structure. Gas chromatography was used to assay the short-chain fatty acid level of the feces. In addition, weight, food intake, insulin sensitivity, systemic inflammation levels were monitored and measured during the 18-week period.
The gut microbiota populations in rats from all four experimental groups were analyzed by 454 pyrosequencing and multivariate statistical analyses. […] Diet also exerted statistically significant influence on gut microbiota population.
268 berberine-related OTU were identified by redundancy analysis (RDA) and the detailed results are shown in FIG. 2, TABLE 1, and TABLE 2. 93 OTU (SEQ_ID_NO 1-93) (TABLE 1) are enriched by berberine, while 175 OTU (SEQ_ID_NO 94-268) (TABLE 2) were suppressed or eliminated.
The taxonomy of these 268 OTU was analyzed using RDP classifier with representative sequence of the OTU. […] Among them, Blautia, Allobaculum, Prevotella, Bacteroides, and Butyricimonas are relatively abundant and are capable of producing short-chain fatty acid.

[1] = system: gut short-chain fatty acid; experiment: Short-chain fatty acid level in rat feces by gas chromatography; conditions: oral 100 mg/kg body weight, FIG. 3
Description: as §1, with “period. The levels of short-chain fatty acid (including acetic acid, propionic acid, butyric acid, valeric acid, isobutyric acid, isovaleric acid, etc.) in rat feces were assayed by gas chromatography. […] Therefore, berberine is capable of increasing gut short-chain fatty acid level in rats fed normal diet or high fat diet.” for “period.”

[2] = Obesity phenotype of rats fed normal or high fat diet: body weight, adiposity index, food intake, liver and pancreas
Description: as §1, with “period. The body weight of all four groups of rats were monitored during the duration of the experiments and analyzed. […] At the end of experiment, animals were euthanized. Fasting body weight, epididymal fat weight, and perirenal fat weight were measured.” for “period.”

[3] = Insulin sensitivity in rats: FBG, FINS, HOMA-IR, oral glucose tolerance test, intraperitoneal insulin tolerance test
Description: as §1, with “period. The fasting blood glucose (FBG) and fasting insulin in serum (FINS) were measured for all four experimental groups of rats. […] In order to further examine insulin sensitivity, oral glucose tolerance test and intraperitoneal injection of insulin tolerance test were conducted, and the results are shown in FIG. 5D, and 5E, respectively.” for “period.”

[4] = Systemic inflammation level in rats: serum LBP, MCP-1, leptin, adiponectin
Description: as §1
In order to evaluate the systemic inflammation levels of all four experimental groups of rats, the serum levels of lipopolysaccharide (LPS)-binding protein (LBP), monocyte chemoattractant protein-1 (MCP-1), leptin, and adiponectin were measured, and results are shown in FIG. 6.
MCP-1 is a pro-inflammatory cytokine that functions in chemotaxis and activation of monocytes/macrophages. Occurrence and development of many inflammation-related diseases are closely related to MCP-1, including atherosclerosis, obesity, type 2 diabetes, arthritis, sepsis, and chronic bacterial infection.
Leptin is a hormone secreted by adipose tissue, and broadly participates in lipid, glucose, and energy metabolism.
The adiponectin levels in all four groups were analyzed. […] Therefore, berberine improves gut microbiota population, reduces LPB, MCP-1, and lpetin level, and increases adiponectin secretion. TABLE 1 16S rRNA gene V3 region sequence of those bacteria enriched by berberine.

## COc1ccc2cc3[n+](cc2c1OC)CCc1cc2c(cc1-3)OCO2 [berberine]
Gut microbiota; FIG. 2
  number of berberine-related OTU identified (RDA): 268 OTU
Gut microbiota; NCD and HFD rats, FIG. 1A
  share of overall changes in the gut microbiota population accounted for (PCoA, unweighted Unifrac distance): 12.6%
Gut microbiota; P<0.05, FIG. 1C
  diversity of gut microbiota population (Shannon-Wiener index): reduces diversity of gut microbiota population at a statistically significant level
Gut microbiota; SEQ_ID_NO 1-93, TABLE 1
  number of OTU enriched (RDA): 93 OTU
Gut microbiota; SEQ_ID_NO 94-268, TABLE 2
  number of OTU suppressed or eliminated (RDA): 175 OTU
Gut microbiota; normal diet group and high fat diet group
  effect on gut microbiota structure (PCoA): altered gut microbiota structure in both the normal diet group and high fat diet group at a statistically significant level
[1]
  effect on levels of acetic acid and propionic acid in feces: especially pronounced
[1]; rats fed normal diet or high fat diet
  level of gut short-chain fatty acid in feces: may increase the level of gut short-chain fatty acid
[2]; 100 mg/kg, entire experiment, P>0.05
  body weight of HFD+BBR group versus normal diet group: no statistically significant difference
[2]; 18 weeks
  effect on liver and pancreas / side effect of long term use: no obvious side effect
[2]; 18 weeks, HFD, FIG. 4B
  adiposity index ([epididymal fat weight+perirenal fat]/fasting weight×100): significantly reduces adiposity index
[2]; NCD+BBR, FIG. 4
  body weight of rats fed a normal diet: influences, to a certain degree
[2]; intragastric 100 mg/kg, 18 weeks, especially rats fed high fat diet, FIG. 4A
  body weight growth: effectively limits rat body weight growth
[2]; oral 100 mg/kg body weight, especially rats fed a high fat diet, FIG. 4C
  food intake (calorie intake): significant inhibitory effect on rat food intake
[3]; 100 mg/kg body weight, 18 weeks HFD, FIG. 5D
  oral glucose tolerance test: significantly prevented the loss of glucose tolerance
[3]; 100 mg/kg body weight, 18 weeks HFD, FIG. 5E
  intraperitoneal injection of insulin tolerance test: significantly prevented the loss of glucose tolerance and insulin tolerance
[3]; 100 mg/kg body weight, HFD+BBR, FIG. 5B
  fasting insulin in serum (FINS): significantly reduced
[3]; 100 mg/kg body weight, HFD, P<0.05, FIG. 5C
  HOMA insulin resistance index: prevented the formation of insulin resistance
[3]; HFD rats, P<0.05, FIG. 5A
  fasting blood glucose (FBG) reduction: significant
[3]; NCD and HFD rats, FIG. 5A
  fasting blood glucose (FBG): effectively reduced FBG
[4]; 100 mg/kg, HFD, P<0.05, FIG. 6A
  serum lipopolysaccharide (LPS)-binding protein (LBP): significantly abrogated the increase of serum LBP
[4]; HFD rats, FIG. 6B
  serum MCP-1 level: significantly reduced
[4]; HFD+BBR versus NCD
  serum MCP-1 level versus NCD group: even lower than that of NCD group
[4]; especially rats fed a HFD, P<0.05, FIG. 6C
  serum leptin level: significantly reduced the serum leptin level
[4]; rats fed a HFD, P<0.01, FIG. 6D
  adiponectin level normalized against body fat weight: significantly increased adiponectin level

Source: US10285984B2, “Methods and compositions for improving gut microbiota population” (SHANGHAI JIAO TONG UNIVERSITY, priority 2012, dated 2019)
